Assay results taken from ChEMBL document CHEMBL1201862, “PubChem BioAssay data set” (2004).
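A five-concentration, 48-hour dose response in 96-well plates underlies each endpoint, interpolated linearly between surrounding concentrations. GI50 marks 50% less growth.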 Activity calls are given as the source filed them. No stated cut-off is given here; in the data, active = GI50 up to about 1.1 µM and inactive = higher.

Experiments:
Test in all cases: inhibition of tumour cell growth, NCI panel, 48 h
[1] = tested on: 786-0
[2] = tested on: A498
[3] = tested on: A549
[4] = tested on: ACHN
[5] = tested on: CAKI-1
[6] = tested on: CCRF-CEM
[7] = tested on: COLO 205
[8] = tested on: DU-145
[9] = tested on: EKVX
[10] = tested on: HCC 2998
[11] = tested on: HCT-116
[12] = tested on: HCT-15
[13] = tested on: HL-60
[14] = tested on: HOP-62
[15] = tested on: HOP-92
[16] = tested on: HT-29
[17] = tested on: Hs-578T
[18] = tested on: IGROV-1
[19] = tested on: K562
[20] = tested on: KM12
[21] = tested on: LOX IMVI
[22] = tested on: MCF7
[23] = tested on: MDA-MB-231
[24] = tested on: MDA-MB-435
[25] = tested on: MDA-N
[26] = tested on: MOLT-4
[27] = tested on: Malme-3M
[28] = tested on: NCI-H226
[29] = tested on: NCI-H23
[30] = tested on: NCI-H460
[31] = tested on: NCI-H522
[32] = tested on: NCI/ADR-RES
[33] = tested on: OVCAR-3
[34] = tested on: OVCAR-4
[35] = tested on: OVCAR-5
[36] = tested on: OVCAR-8
[37] = tested on: PC-3
[38] = tested on: RPMI-8226
[39] = tested on: RXF 393
[40] = tested on: SF-268
[41] = tested on: SF-295
[42] = tested on: SF-539
[43] = tested on: SK-MEL-28
[44] = tested on: SK-MEL-5
[45] = tested on: SK-OV-3
[46] = tested on: SN12C
[47] = tested on: SNB-75
[48] = tested on: SR
[49] = tested on: SW-620
[50] = tested on: T47D
[51] = tested on: TK-10
[52] = tested on: U-251
[53] = tested on: UACC-257
[54] = tested on: UACC-62
[55] = tested on: UO-31
[56] = tested on: M14
[57] = tested on: SNB-19

COC(=O)c1ccccc1/C=C1\Cc2ccc3c(c2C1=O)CCC3
GI50 [1]: > 100 µM (inactive) | GI50 [2]: > 100 µM (inactive) | GI50 [3]: > 100 µM (inactive) | GI50 [4]: > 100 µM (inactive) | GI50 [5]: > 100 µM (inactive) | GI50 [6]: > 100 µM (inactive) | GI50 [7]: > 100 µM (inactive) | GI50 [8]: > 100 µM (inactive) | GI50 [9]: > 100 µM (inactive) | GI50 [10]: > 100 µM (inactive) | GI50 [11]: > 100 µM (inactive) | GI50 [12]: > 100 µM | GI50 [13]: > 100 µM (inactive) | GI50 [14]: > 100 µM (inactive) | GI50 [15]: > 100 µM (inactive) | GI50 [16]: > 100 µM (inactive) | GI50 [17]: > 100 µM (inactive) | GI50 [18]: > 100 µM (inactive) | GI50 [19]: > 100 µM (inactive) | GI50 [20]: > 100 µM (inactive) | GI50 [21]: > 100 µM (inactive) | GI50 [22]: > 100 µM (inactive) | GI50 [23]: > 100 µM (inactive) | GI50 [24]: > 100 µM (inactive) | GI50 [25]: > 100 µM (inactive) | GI50 [26]: > 100 µM (inactive) | GI50 [27]: > 100 µM (inactive) | GI50 [28]: > 100 µM (inactive) | GI50 [29]: > 100 µM (inactive) | GI50 [30]: > 100 µM (inactive) | GI50 [31]: > 100 µM (inactive) | GI50 [32]: > 100 µM (inactive) | GI50 [33]: > 100 µM (inactive) | GI50 [34]: > 100 µM (inactive) | GI50 [35]: > 100 µM (inactive) | GI50 [36]: > 100 µM (inactive) | GI50 [37]: > 100 µM (inactive) | GI50 [38]: > 100 µM (inactive) | GI50 [39]: > 100 µM (inactive) | GI50 [40]: > 100 µM (inactive) | GI50 [41]: > 100 µM (inactive) | GI50 [42]: > 100 µM (inactive) | GI50 [43]: > 100 µM (inactive) | GI50 [44]: > 100 µM (inactive) | GI50 [45]: > 100 µM (inactive) | GI50 [46]: > 100 µM (inactive) | GI50 [47]: > 100 µM (inactive) | GI50 [48]: > 100 µM (inactive) | GI50 [49]: > 100 µM (inactive) | GI50 [50]: > 100 µM (inactive) | GI50 [51]: > 100 µM (inactive) | GI50 [52]: > 100 µM (inactive) | GI50 [53]: > 100 µM (inactive) | GI50 [54]: > 100 µM (inactive) | GI50 [55]: > 100 µM (inactive)

c1ccc2c(Cc3nnc4sc(SSc5nn6c(Cc7c[nH]c8ccccc78)nnc6s5)nn34)c[nH]c2c1
GI50 [1]: 20.8 µM (inactive) | GI50 [2]: 11.3 µM (inactive) | GI50 [3]: 28.8 µM (inactive) | GI50 [4]: 26.4 µM (inactive) | GI50 [5]: 18.7 µM (inactive) | GI50 [6]: 32.6 µM (inactive) | GI50 [7]: 21.1 µM (inactive) | GI50 [8]: 26.3 µM (inactive) | GI50 [9]: 23 µM (inactive) | GI50 [10]: 16.7 µM (inactive) | GI50 [11]: 16 µM (inactive) | GI50 [12]: 21.3 µM | GI50 [13]: 24.2 µM (inactive) | GI50 [14]: 16.2 µM (inactive) | GI50 [15]: 31 µM (inactive) | GI50 [16]: 22.5 µM (inactive) | GI50 [17]: 23.8 µM (inactive) | GI50 [18]: 2.99 µM (inactive) | GI50 [19]: 17.4 µM (inactive) | GI50 [20]: 22.9 µM (inactive) | GI50 [56]: 18.5 µM (inactive) | GI50 [22]: 15.1 µM (inactive) | GI50 [24]: 19 µM (inactive) | GI50 [26]: 8.93 µM (inactive) | GI50 [27]: 31.3 µM (inactive) | GI50 [29]: 19.1 µM (inactive) | GI50 [30]: 30.4 µM (inactive) | GI50 [31]: 17.9 µM (inactive) | GI50 [32]: 20.3 µM (inactive) | GI50 [33]: 11.8 µM (inactive) | GI50 [34]: 58.1 µM (inactive) | GI50 [35]: 26.2 µM (inactive) | GI50 [36]: 26.4 µM (inactive) | GI50 [37]: 19.3 µM (inactive) | GI50 [39]: 18.8 µM (inactive) | GI50 [40]: 21.8 µM (inactive) | GI50 [41]: 19.5 µM (inactive) | GI50 [42]: 23.1 µM (inactive) | GI50 [43]: 33.5 µM (inactive) | GI50 [44]: 11.2 µM (inactive) | GI50 [45]: 39.9 µM (inactive) | GI50 [46]: 18.7 µM (inactive) | GI50 [57]: 31 µM (inactive) | GI50 [47]: 48.2 µM (inactive) | GI50 [48]: 18.1 µM (inactive) | GI50 [49]: 16.7 µM (inactive) | GI50 [50]: 23.2 µM (inactive) | GI50 [51]: 38.7 µM (inactive) | GI50 [52]: 21.7 µM (inactive) | GI50 [53]: 33 µM (inactive) | GI50 [54]: 16 µM (inactive) | GI50 [55]: 14.5 µM (inactive)

COC(C)(C)[C@@H](O)[C@H](O)C[C@H](C)C1=C2CC[C@@H]3[C@@]4(C)CC[C@@H](OC(C)=O)C(C)(C)[C@@H]4C[C@@H](OC4OC(COC(C)=O)C(O)C(O)C4O)[C@@]3(C)[C@]2(C)CC1 (stereo not given in full)
GI50 [45]: 15.3 µM (inactive) | GI50 [47]: 8.79 µM (inactive) | GI50 [52]: 10.7 µM (inactive)
